# Results as given in BindingDB's records for doi:10.1021/jm010384j (Wake Forest University School of Medicine, 2001).
# Biological target: Sigma non-opioid intracellular receptor 1 (Cavia porcellus) (UniProt Q60492)
# Assay: Binding affinity for sigma 1 opioid receptor, measured on guinea pig brain membranes using [3H]- (+)-pentazocine as radioligand
# Sequence of Sigma non-opioid intracellular receptor 1 (Cavia porcellus) (Q60492 whole entry, looked up): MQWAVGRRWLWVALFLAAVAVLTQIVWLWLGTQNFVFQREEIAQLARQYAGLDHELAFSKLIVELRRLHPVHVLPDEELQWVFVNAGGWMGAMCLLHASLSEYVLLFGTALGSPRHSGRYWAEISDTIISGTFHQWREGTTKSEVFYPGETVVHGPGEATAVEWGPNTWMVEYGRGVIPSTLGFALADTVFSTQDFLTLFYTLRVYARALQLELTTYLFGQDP
row,Ki [nM],Structure (SMILES)
1,15.4,O=C(Cc1ccccc1F)NC1CCN(Cc2cccc(I)c2)CC1 [2-(2-Fluoro-phenyl)-N-[1-(3-iodo-benzyl)-piperidin-4-yl]-acetamide]
2,4.2,O=C(Cc1ccccc1F)NC1CCN(Cc2ccc(I)cc2)CC1 [2-(2-Fluoro-phenyl)-N-[1-(4-iodo-benzyl)-piperidin-4-yl]-acetamide]
3,1.15,O=C(Cc1cccc(Cl)c1)NC1CCN(Cc2ccc(F)cc2)CC1 [2-(3-Chloro-phenyl)-N-[1-(4-fluoro-benzyl)-piperidin-4-yl]-acetamide]
4,3.21,O=C(Cc1cccc(Cl)c1)NC1CCN(Cc2ccc(I)cc2)CC1 [2-(3-Chloro-phenyl)-N-[1-(4-iodo-benzyl)-piperidin-4-yl]-acetamide]
5,2.25,O=C(Cc1cccc(F)c1)NC1CCN(Cc2ccc(I)cc2)CC1 [2-(3-Fluoro-phenyl)-N-[1-(4-iodo-benzyl)-piperidin-4-yl]-acetamide]
6,141,O=C(Cc1ccccc1)NC1CCN(Cc2cccc(C(F)(F)F)c2)CC1 [2-Phenyl-N-[1-(3-trifluoromethyl-benzyl)-piperidin-4-yl]-acetamide]
7,125,COc1ccc2[nH]cc(CC(=O)NC3CCN(Cc4ccccc4)CC3)c2c1 [N-(1-Benzyl-piperidin-4-yl)-2-(5-methoxy-1H-indol-3-yl)-acetamide]
8,> 1000,"O=C1C=CC2C(CC(=O)NC3CCN(Cc4ccccc4)CC3)=CC(=O)OC2C1 (configuration not stated) [N-(1-Benzyl-piperidin-4-yl)-2-(7-hydroxy-2-oxo-4a,8a-dihydro-2H-chromen-4-yl)-acetamide]"
9,150,O=C(CSc1ncccn1)NC1CCN(Cc2ccccc2)CC1 [N-(1-Benzyl-piperidin-4-yl)-2-(pyrimidin-2-ylsulfanyl)-acetamide]
10,4.64,O=C(Cc1cccc2ccccc12)NC1CCN(Cc2ccccc2)CC1 [N-(1-Benzyl-piperidin-4-yl)-2-naphthalen-1-yl-acetamide]
11,269,O=C(Cc1cccnc1)NC1CCN(Cc2ccccc2)CC1 [N-(1-Benzyl-piperidin-4-yl)-2-pyridin-3-yl-acetamide]
12,7.2,O=C(Cc1ccsc1)NC1CCN(Cc2ccccc2)CC1 [N-(1-Benzyl-piperidin-4-yl)-2-thiophen-3-yl-acetamide]
13,347,O=C(Cc1ccccc1)NC1CCN(Cc2ccccc2I)CC1 [N-[1-(2-Iodo-benzyl)-piperidin-4-yl]-2-phenyl-acetamide]
14,19.1,O=C(Cc1ccccc1)NC1CCN(Cc2ccc([N+](=O)[O-])cc2)CC1 [N-[1-(4-Nitro-benzyl)-piperidin-4-yl]-2-phenyl-acetamide]

# Continued, compound first:
row,Structure (SMILES),Ki [nM]
1,O=C(Nc1cccc2ccccc12)NC1CCN(Cc2ccccc2)CC1 [1-(1-Benzyl-piperidin-4-yl)-3-naphthalen-1-yl-urea],22.7
2,O=C(Cc1cccc(Br)c1)NC1CCN(Cc2cccc(I)c2)CC1 [2-(3-Bromo-phenyl)-N-[1-(3-iodo-benzyl)-piperidin-4-yl]-acetamide],3.49
3,O=C(Cc1cccc(Br)c1)NC1CCN(Cc2ccc(F)cc2)CC1 [2-(3-Bromo-phenyl)-N-[1-(4-fluoro-benzyl)-piperidin-4-yl]-acetamide],1.21
4,O=C(Cc1cccc(Br)c1)NC1CCN(Cc2ccc(I)cc2)CC1 [2-(3-Bromo-phenyl)-N-[1-(4-iodo-benzyl)-piperidin-4-yl]-acetamide],1.78
5,O=C(Cc1cccc(Cl)c1)NC1CCN(Cc2cccc(I)c2)CC1 [2-(3-Chloro-phenyl)-N-[1-(3-iodo-benzyl)-piperidin-4-yl]-acetamide],2.31
6,O=C(Cc1cccc(F)c1)NC1CCN(Cc2cccc(I)c2)CC1 [2-(3-Fluoro-phenyl)-N-[1-(3-iodo-benzyl)-piperidin-4-yl]-acetamide],4.29
7,O=C(Cc1ccccc1)NC1CCN(Cc2ccccc2C(F)(F)F)CC1 [2-Phenyl-N-[1-(2-trifluoromethyl-benzyl)-piperidin-4-yl]-acetamide],> 1000
8,O=C(Cc1ccccc1)NC1CCN(Cc2ccc(C(F)(F)F)cc2)CC1 [2-Phenyl-N-[1-(4-trifluoromethyl-benzyl)-piperidin-4-yl]-acetamide],87
9,O=C(Cc1cnc[nH]1)NC1CCN(Cc2ccccc2)CC1 [N-(1-Benzyl-piperidin-4-yl)-2-(1H-imidazol-4-yl)-acetamide],248
10,O=C(Cc1c[nH]c2ccccc12)NC1CCN(Cc2ccccc2)CC1 [N-(1-Benzyl-piperidin-4-yl)-2-(1H-indol-3-yl)-acetamide],10.9
11,O=C(Cc1ccc(I)cc1)NC1CCN(Cc2ccccc2)CC1 [N-(1-Benzyl-piperidin-4-yl)-2-(4-iodo-phenyl)-acetamide],13.8
12,O=C(Cc1c[nH]c2ccc(Br)cc12)NC1CCN(Cc2ccccc2)CC1 [N-(1-Benzyl-piperidin-4-yl)-2-(5-bromo-1H-indol-3-yl)-acetamide],51.9
13,COc1ccc2c(c1)C(CC(=O)NC1CCN(Cc3ccccc3)CC1)CC2=O (configuration not stated) [N-(1-Benzyl-piperidin-4-yl)-2-(6-methoxy-3-oxo-indan-1-yl)-acetamide],299
14,O=C(Cc1ccc2ccccc2c1)NC1CCN(Cc2ccccc2)CC1 [N-(1-Benzyl-piperidin-4-yl)-2-naphthalen-2-yl-acetamide],61.8
15,O=C(Cc1ccccn1)NC1CCN(Cc2ccccc2)CC1 [N-(1-Benzyl-piperidin-4-yl)-2-pyridin-2-yl-acetamide],236
16,O=C(Cc1ccncc1)NC1CCN(Cc2ccccc2)CC1 [N-(1-Benzyl-piperidin-4-yl)-2-pyridin-4-yl-acetamide],298
17,O=C(Cc1cccs1)NC1CCN(Cc2ccccc2)CC1 [N-(1-Benzyl-piperidin-4-yl)-2-thiophen-2-yl-acetamide],3.93
18,O=C(Cc1ccccc1)NC1CCN(Cc2ccc3ccccc3c2)CC1 [N-(1-Naphthalen-2-ylmethyl-piperidin-4-yl)-2-phenyl-acetamide],23.9
19,O=C(Cc1ccccc1)NC1CCN(CCc2ccccc2)CC1 [N-(1-Phenethyl-piperidin-4-yl)-2-phenyl-acetamide],31.2
20,O=C(Cc1ccccc1)NC1CCN(Cc2ccccc2F)CC1 [N-[1-(2-Fluoro-benzyl)-piperidin-4-yl]-2-phenyl-acetamide],10.2
21,"O=C(Cc1ccccc1)NC1CCN(Cc2ccc(Cl)c(Cl)c2)CC1 [N-[1-(3,4-Dichloro-benzyl)-piperidin-4-yl]-2-phenyl-acetamide]",7.24
22,"O=C(Cc1ccccc1)NC1CCN(Cc2ccc(F)c(F)c2)CC1 [N-[1-(3,4-Difluoro-benzyl)-piperidin-4-yl]-2-phenyl-acetamide]",6.3
23,O=C(Cc1ccccc1)NC1CCN(Cc2cccc(F)c2)CC1 [N-[1-(3-Fluoro-benzyl)-piperidin-4-yl]-2-phenyl-acetamide],8.22
24,O=C(Cc1ccccc1)NC1CCN(Cc2cccc(I)c2)CC1 [N-[1-(3-Iodo-benzyl)-piperidin-4-yl]-2-phenyl-acetamide],6.75
25,O=C(Cc1ccccc1F)NC1CCN(Cc2ccc(F)cc2)CC1 [N-[1-(4-Fluoro-benzyl)-piperidin-4-yl]-2-(2-fluoro-phenyl)-acetamide],3.15
26,O=C(Cc1cccc(F)c1)NC1CCN(Cc2ccc(F)cc2)CC1 [N-[1-(4-Fluoro-benzyl)-piperidin-4-yl]-2-(3-fluoro-phenyl)-acetamide],5.51
27,O=C(Cc1ccccc1)NC1CCN(Cc2ccc(F)cc2)CC1 [N-[1-(4-Fluoro-benzyl)-piperidin-4-yl]-2-phenyl-acetamide],6.59
28,O=C(Cc1ccccc1)NC1CCN(Cc2ccc(I)cc2)CC1 [N-[1-(4-Iodo-benzyl)-piperidin-4-yl]-2-phenyl-acetamide],9.03
